From patent US20180044672A1, “Pericyte Long Non-Coding RNAs” (Johann Wolfgang Goethe-Universität Frankfurt am Main, priority 2015, published 2018)
Entries after “also recorded” stand apart in the source; their conditions may differ.

Tests used:
[1] = PC viability by MTT assay; settings: human
human pericytes (PC) = test: PC viability by MTT assay
TYKRIL = TYKRIL expression in human pericytes by qRT-PCR; assay type: cell-based; settings: for TYKRIL expression levels in PC: LNA GapmeR 50 nmol/l, 48 h after transfection, vs scrambled control
Procedure: (§1) Cells were grown to 60-80% confluency and were transfected for 4 hours in Optimem Medium using Lipfectamine (both from Life technologies, Carlsbad, Calif., USA) with 50 nmol/l LNA GapmeR (Exiqon, Vedbaek, Denmarkt) according to the manufacturer's instructions. Controls were transfected with scrambled LNA GapmeR control. Four hours after LNA Gapmer Transfection, Optimem Medium was exchanged with normal cell culture medium. All experimental manipulations were carried out 48 hours after transfection.
(§2) Total RNA from PC was isolated using RNeasy Mini Kits (Qiagen, Hilden, Germany) as recommended by the manufacturer including a DNA digestion step. Nuclear and cytosolic fractions were prepared as documented elsewhere 34. 500-1000 ng RNA was reversely transcribed with random hexamer primers (ThermoScientific, Waltham, USA) by MulV reverse transcriptase (Lifetechnologies) in 40 μl reaction volume. Fast SYBR green or SYBR green (Applied Biosystems, Forster City, USA) and cDNA were used for qRT-PCR. A Viia7 or StepOnePlus from Applied Biosystems was used. CT values were normalized against ribosomal RPLP0. Relative gene expression levels were determined by the formula: 2-deltaCT; deltaCT=CTtarget−CTcontrol.

PDGFRβ [2] = test: PDGFRβ expression in human pericytes by qPCR and immunoblotting; assay type: cell-based; settings: for PDGFRβ mRNA (qPCR) / PDGFRβ protein levels (immunoblotting): upon TYKRIL silencing by LNA GapmeRs
Procedure: as §1, §2
Standard immunofluorescent staining procedures were carried out as described before 35-37. In brief, cells were washed with PBS, fixed in ice cold acetone for about 5 minutes. After washing cells were blocked for 2 hours at room temperature with 5% donkey serum (Dianova, Hambur, Germany), 0.3% Triton X-100 in PBS. Primary antibodies were incubated overnight in PBS containing 2% BSA, 0.1% Triton X-100. Secondary antibodies and Hoechst (Lifetechnologies, 1/1000) were incubated in 2% BSA, 0.1% azide for another 2 hours. For SDS Page protein isolation cells were washed once with ice-cold PBS, snap frozen in liquid nitrogen and RIPA-buffer (Thermo Scientific, Rockford, USA) supplemented with protease inhibitor (Roche Diagnostics) was applied. Cells were then scraped off with an ice cold rubber policeman and incubated for 45 minutes on ice under agitation. Subsequently probes were centrifuged for 10 minutes at 5000 RPM at 4° C. The supernatant was transferred into ice cold vials and protein concentration was determined by performing a Bradford assay with RotiQuant (Carl Roth, Karlsruhe, Germany) according to the manufacturer's instructions. Protein samples were mixed with an equal volume of 2× Laemmli buffer (Sigma Aldrich). Gels (Mini-Protean TGX, BioRad) were loaded with 20-30 μg protein per lane. SDS page was performed for 1 hour at 100V in […] (BioRad). Western Blotting was performed using a Pierce G2 Fast Blotter according to the manufacturer's instructions (ThermoScientific).

human pericytes = test: RNA Seq upon TYKRIL knockdown in pericytes; assay type: cell-based; settings: upon TYKRIL knockdown with LNA GapmeRs
Procedure: RNA deep sequencing was performed by analyzing ribosomal depleted total RNA from human Pericytes. RNA was isolated using a RNeasy Mini Kit (Qiagen) according to the manufacturer's instructions including DNA digestion. Subsequently RNA was fragmented and primed for cDNA synthesis. Libraries were created using a TruSeq RNA Ribo-Zero Globin kit (from Illumina) as recommended by the manufacturer. A Illumina HiSeq 2000 flowcell was used for sequencing. lncRNA annotation was done based on the NONCODE database (noncode.org).

mTYKRIL = test: Murine TYKRIL knockdown in vivo, mTYKRIL in organs; parameters: species or system mouse; settings: mice, 20 mg/kg intraperitoneally, single shot, 48 h
Procedure: (§3) HPLC purified. LNA GapmeRs were injected intraperitoneally at a dosage of 20 mg/kg bodyweight. 48 hours after injection, mice were sacrificed by isoflurane overdose and cardially perfused with PBS at a steady flow of 9 ml/min. Subsequently organs were removed and snap forzen for RNA and protein isolation.

PDGFRβ [3] = test: Murine TYKRIL knockdown in vivo, PDGFRβ in organs; parameters: species or system mouse; settings: mice, 20 mg/kg intraperitoneally, single shot, 48 h
Procedure: as §3

[4] = p53 gain of function by doxorubicin treatment

## Cc1ccc(NC(=O)c2ccc(CN3CCN(C)CC3)cc2)cc1Nc1nccc(-c2cccnc2)n1 [Imatinib]
[1]; human pericytes (PC)
  cytotoxicity at 24 h, 1 μM: ~20%
[1]; human pericytes (PC) with TYKRIL silenced by LNA GapmeR
  cytotoxicity: ~45%
Human pericytes (PC); imatinib 1 μM, 24 h, compared with solvent PBS
  PC viability (MTT), in words: significantly decreased PC viability
Human pericytes (PC); imatinib upon TYKRIL silencing, compared with scramble control transfected PC
  PC viability (MTT), in words: significantly more reduced

## COc1cccc2c1C(=O)c1c(O)c3c(c(O)c1C2=O)C[C@@](O)(C(=O)CO)C[C@@H]3O[C@H]1C[C@H](N)[C@H](O)[C@H](C)O1 [doxorubicin, reference compound]
TYKRIL; [4]
  TYKRIL expression: loss of TYKRIL; also recorded: downregulation
PDGFRβ [2]; [4]
  PDGFRβ on RNA level: downregulation of PDGFRβ; also recorded: significant decline
  PDGFRβ on protein level: downregulation of PDGFRβ; also recorded: significant decline

## LNA#1: LNA GapmeR against human TYKRIL, 5′-3′: AGAGGTGATTAAGGT (LNA gapmer: LNA flanks around DNA gap, pattern and linkages not given here)
TYKRIL
  TYKRIL expression levels in PC: significant reduction of TYKRIL
Human pericytes
  Pericyte differentiation state by RNA Seq: de-differentiation of Pericytes
PDGFRβ [2]
  PDGFRβ mRNA (qPCR): loss of PDGFRβ
  PDGFRβ protein levels (immunoblotting): loss of PDGFRβ

## LNA#3: LNA GapmeR against human TYKRIL, 5′-3′: AGTGAAGGACAGAGGC (LNA gapmer: LNA flanks around DNA gap, pattern and linkages not given here)
TYKRIL
  TYKRIL expression levels in PC: significant reduction of TYKRIL
Human pericytes
  Pericyte differentiation state by RNA Seq: de-differentiation of Pericytes
PDGFRβ [2]
  PDGFRβ mRNA (qPCR): loss of PDGFRβ
  PDGFRβ protein levels (immunoblotting): loss of PDGFRβ

## mLNA#4: murine TYKRIL LNA Gapmer, SEQ ID NO: 12, GTCTGCACTTAATTAA (LNA gapmer, pattern and linkages not given here; listed as Mus musculus)
mTYKRIL
  mTYKRIL (qPCR) in heart: downregulation
mTYKRIL; 20 mg/kg
  mTYKRIL in kidneys: decreased; also recorded: downregulation
  mTYKRIL in liver: decreased; also recorded: downregulation
  mTYKRIL in lungs: decreased; also recorded: downregulation
  mTYKRIL in spleen: decreased; also recorded: downregulation
PDGFRβ [3]
  PDGFRβ (qPCR) in heart: downregulation
  PDGFRβ protein level in heart: PDGFRβ loss
PDGFRβ [3]; 20 mg/kg
  PDGFRβ in kidneys: decreased; also recorded: downregulation
  PDGFRβ in liver: decreased; also recorded: downregulation
  PDGFRβ in lungs: decreased; also recorded: downregulation
  PDGFRβ in spleen: decreased; also recorded: downregulation
